Measured values reported in US10501487B2, “Antibacterial bismuth complexes” (priority 2015, dated 2019).
Like-named read-outs stand apart in the source and are kept apart here.

Legend:
VRE = assay: Test 3: complex incorporated in agar, colony growth; assay type: cell-based, Enterococcus; details: 1 mg in agar (20 mL)
Description: (§1) The organobismuth (III) phosphinate complex (10 mg or 1 mg) was spread at the bottom of a petri dish. 20 mL of agar was poured on top, before allowing to dry and being stored in a cool dry place. MRSA and VRE were grown in 40 mL BHI with shaking at 37° C. to an OD (optical density) of 0.6 (2-3 hr). The bacteria were then grown for a further 2 hours at 37° C. The bacteria were then plated (at no dilution, 10^3-fold dilution, and 10^4-fold dilution on agar plates containing organobismuth (III) phosphinate and control plates containing no organobismuth (III) phosphinate. The plates were incubated overnight at 37° C. The colonies were counted and multiplied by the dilution factor to determine the colony-forming unit (cfu)/ml of the original culture.

S. aureus = assay: Test 1: colony count after incubation in Lysogeny broth culture; assay type: cell-based; details: for Colony S. aureus: Table 1a, 10 mg in 5 mL culture, 2 hours at 37° C., Blank 8.00E+08 (examples), 4.00E+08 (second Blank); for inhibition of growth at 2000 µg/mL: Staphylococcus aureus, 2 h, read-out: Reduction in bacterial growth (%) S. aureus
Description: (§2) Bacteria were grown in […] Lysogeny broth (LB), shaking at 37° C. to an optical density (OD) of 0.6 (2-3 hr). The culture was divided in […]. One of the cultures was used as a control, containing no organobismuth(III) phosphinate complex. To the other culture, 10 mg of the appropriate organobismuth (III) phosphinate complex was added. The control and organobismuth(III) phosphinate complex-containing cultures were then incubated for 2 hours at 37° C. with shaking. An aliquot was removed from each culture, serially diluted and 50 uL spread on lysogeny broth plates (˜1 in 10^7 gives countable colony numbers for the wild type controls). The plates were incubated overnight at 37° C. The colonies were counted and multiplied by the dilution factor to determine the colony-forming unit (cfu)/ml of the original culture.
(§3) The experiments were also repeated in a lower concentration (0.5 mg/mL) in accordance with the procedure above, which is also shown in Table 2.

E. coli = assay: as above; assay type: cell-based; details: for Colony E. coli: Table 1a, 10 mg in 5 mL culture, 2 hours at 37° C., Blank 8.00E+08 (examples), 6.40E+08 (second Blank); for inhibition of growth at 2000 µg/mL: Escherichia coli, 2 h, read-out: Reduction in bacterial growth (%) E. coli
Description: as §2, §3

MRSA = assay: Test 3: complex incorporated in agar, colony growth; assay type: cell-based, Staphylococcus aureus; details: 1 mg in agar (20 mL)
Description: as §1

[1] = tested on: cos 7 (monkey kidney-derived) cells; assay: MTT-based toxicology assay; assay type: cell-based; details: 1 mg/mL, two hours; preliminary results
Description: Toxicity testing was performed on the example complexes 1-5 as well as the corresponding ligands against cos 7 eukaryotic cells. Cytotoxicity was assessed using the MTT-based toxicology assay (Sigma-Aldrich; TOX1 assay kit) according to the manufacturer's instructions. Compounds were added to cultured cos 7 (monkey kidney-derived) cells at 1 mg/mL and 0.5 mg/mL for two hours. The MTT reagent was then added and cells were incubated at 37° C. for a further two hours. Following incubation, MTT solubilisation solution was added and mixed. Absorbance results were measured on a Tecan plate reader at 690 nm (background reading) and again at 570 nm. Results were calculated after subtracting the background reading (690 nm) from the values obtained at 570 nm. Cell viability was expressed as a normalised percentage against the blank (medium-only) negative controls. All assays were performed in duplicate.

[2] = 0.5 mg/mL, normalised against the Blank sample
[3] = 2 mg/mL, normalised against the Blank sample

Structure (SMILES): O=[N+]([O-])c1cccc(P(=O)([O][Bi]([O]P(=O)(c2cccc([N+](=O)[O-])c2)c2cccc([N+](=O)[O-])c2)[c]2ccccc2)c2cccc([N+](=O)[O-])c2)c1 [Example 3, Phenyl bismuth bis(bis(3-nitrophenyl)phosphinate)]
- bacterial growth on treated agar (in words) (VRE): no bacterial growth was observed
- Reduction in bacterial growth (%) S. aureus (S. aureus; [2]): 90.00%
- Reduction in bacterial growth (%) S. aureus (S. aureus; [3]): 100.00%
- Colony S. aureus (S. aureus): 0.00E+00 cfu/ml
- Reduction in bacterial growth (%) E. coli (E. coli; [2]): 97.00%
- Reduction in bacterial growth (%) E. coli (E. coli; [3]): 100.00%
- Colony E. coli (E. coli): 0.00E+00 cfu/ml
- bacterial growth on treated agar (in words) (MRSA): no bacterial growth was observed

Structure (SMILES): c1cc[c]([Bi]([c]2ccccc2)[c]2ccccc2)cc1 [triphenylbismuth]
- bacterial growth on treated agar (in words) (VRE): grew to a comparable number as the blank
- bacterial growth on treated agar (in words) (MRSA): grew to a comparable number as the blank

Structure (SMILES): COc1ccc(P(=O)(O)c2ccc(OC)cc2)cc1 [bis(4-methoxyphenyl)phosphinic acid]
- inhibition of growth at 2000 µg/mL (S. aureus; [3]): 25%
- Colony S. aureus (S. aureus): 6.00E+08 cfu/ml
- inhibition of growth at 2000 µg/mL (E. coli; [3]): 90%
- Colony E. coli (E. coli): 8.00E+07 cfu/ml

Structure (SMILES): O=[PH](O)c1ccccc1 [phenylphosphinic acid]
- inhibition of growth at 2000 µg/mL (S. aureus): 0%
- Colony S. aureus (S. aureus): 8.00E+08 cfu/ml
- inhibition of growth at 2000 µg/mL (E. coli): 60%
- Colony E. coli (E. coli): 3.20E+08 cfu/ml

Structure (SMILES): O=[PH]([O][Bi]([O][PH](=O)c1ccccc1)[c]1ccccc1)c1ccccc1 (stereo not drawn) [Example 4, Phenyl bismuth bis(phenylphosphinate)]
- toxicity (in words) [1]: relatively non-toxic

Structure (SMILES): CP(C)(=O)[O][Bi]([O]P(C)(C)=O)[c]1ccccc1 [Example 5, Phenyl Bismuth bis(dimethylphosphinate)]
- toxicity (in words) [1]: relatively non-toxic

Structure (SMILES): O=P([O][Bi]([O]P(=O)(c1ccccc1)c1ccccc1)[c]1ccccc1)(c1ccccc1)c1ccccc1 [Example 1, Phenyl bismuth bis(diphenylphosphinate)]
- toxicity (in words) [1]: relatively non-toxic

Structure (SMILES): CP(C)(=O)O [dimethyl phosphinic acid]
- inhibition of growth at 2000 µg/mL (S. aureus): 25%
- Colony S. aureus (S. aureus): 6.00E+08 cfu/ml
- inhibition of growth at 2000 µg/mL (E. coli): 78.8%
- Colony E. coli (E. coli): 1.70E+08 cfu/ml

Structure (SMILES): O=P(O)(c1ccccc1)c1ccccc1 [diphenylphosphinic acid]
- inhibition of growth at 2000 µg/mL (S. aureus; [3]): 0%
- Colony S. aureus (S. aureus): 8.00E+08 cfu/ml
- inhibition of growth at 2000 µg/mL (E. coli; [3]): 70%
- Colony E. coli (E. coli): 2.40E+08 cfu/ml

Structure (SMILES): O=[N+]([O-])c1cccc(P(=O)(O)c2cccc([N+](=O)[O-])c2)c1 [bis(3-nitrophenyl)phosphinic acid, Bis(3-nitrophenyl)phosphinic acid]
- inhibition of growth at 2000 µg/mL (S. aureus; [3]): 0%
- Colony S. aureus (S. aureus): 8.00E+08 cfu/ml
- inhibition of growth at 2000 µg/mL (E. coli; [3]): 90%
- Colony E. coli (E. coli): 8.00E+07 cfu/ml

Structure (SMILES): COc1ccc(P(=O)([O][Bi]([O]P(=O)(c2ccc(OC)cc2)c2ccc(OC)cc2)[c]2ccccc2)c2ccc(OC)cc2)cc1 [Example 2, Phenyl bismuth bis(bis(4-methoxyphenyl)phosphinate)]
- Reduction in bacterial growth (%) S. aureus (S. aureus; [2]): 40.00%
- Reduction in bacterial growth (%) S. aureus (S. aureus; [3]): 100.00%
- Colony S. aureus (S. aureus): 0.00E+00 cfu/ml
- Reduction in bacterial growth (%) E. coli (E. coli; [2]): 100.00%
- Reduction in bacterial growth (%) E. coli (E. coli; [3]): 100.00%
- Colony E. coli (E. coli): 1.50E+01 cfu/ml
